Experimental data: patent US9200008B2 (ASKA PHARMACEUTICAL CO., LTD., priority 2010, dated 2015)

Test system: Human prostate cancer cell lines (PC-3 cells)
Assay: Measurement of cell death-inducing activity (Test Example 1)
Type: cell-based
Details: PC-3, 48 h, 48 hours after addition, tested at 10, 1, 0.1, 0.025 and 0.00625 μmol/L, qualitative evaluation of 10 fields, read-out: Concentration showing the cell death-inducing activity (cell death-inducing rate not less than 40%)
Procedure, shortened: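 Compound treatment lasted 48 h at 10 to 0.00625 μmol/L (five levels, DMSO as control) on PC-3 cells pre-cultured 48 h at 37 °C, 5% CO2 after seeding at 1×10^5 cells/well. A cell death-inducing rate of 40% or more counted as active.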

Cc1ccc(-c2nc(C)c(NC(=O)OCc3ccc4c(c3)nc3n4CCN(C)C3)s2)c(C)c1 [Example 38-3, [2-(2,4-Dimethylphenyl)-4-methylthiazol-5-yl]carbamic acid 2-methyl-1,2,3,4-tetrahydrobenzo[4,5]imidazo[1,2-a]pyrazin-8-ylmethyl ester]
minimal effective concentration: 10 µM

CCCOc1ccccc1-c1nc(C)c(C(=O)N/N=C/c2ccc(OC)c(O)c2)s1 [Example 23-48]
minimal effective concentration: 0.1 µM

COc1ccc(/C=N/NC(=O)c2sc(-c3ccc(Cl)cc3C)nc2C)cc1O [Example 23-46]
minimal effective concentration: 0.025 µM

CCn1nc(-c2ccc(Cl)cc2OC)cc1COC(=O)Nc1ccc2c(c1)ncn2C [Example 13-85]
minimal effective concentration: 0.00625 µM

COc1cc(Cl)ccc1-c1nc(C)c(COC(=O)Nc2ccc3c(cnn3C)c2)s1 [Example 13-41]
minimal effective concentration: 1 µM

COc1cc(Cl)ccc1-c1nn(C)c(NC(=O)OCc2ccc3c(c2)ncn3C)c1C [Example 9-311]
minimal effective concentration: 10 µM

COc1cc(Cl)ccc1-c1cc(NC(=O)OCc2ccc3nn(C)cc3c2)n(C)n1 [Example 9-291]
minimal effective concentration: 0.025 µM

COc1ccc(/C=N/NC(=O)c2sc(-c3ccccc3OC)nc2C)cc1B(O)O [Example 23-160]
minimal effective concentration: 0.1 µM

COc1ccccc1-c1nc(C)c(NC(=O)OCc2ccc3c(c2)nc2n3CCC2)s1 [Example 9-101]
minimal effective concentration: 0.1 µM

CCc1nc(-c2ccccc2OC)sc1NC(=O)OCc1ccc2nn(CC)cc2c1 [Example 9-367]
minimal effective concentration: 1 µM

COc1cc(Cl)ccc1-c1cc(NC(=O)OCc2ccc3c(c2)ncn3C)n(C)n1 [Example 9-221]
minimal effective concentration: 0.00625 µM

COc1ccc(/C=N/NC(=O)Cc2sc(-c3ccc(Cl)cc3OC)nc2C)cc1 [Example 29-1, [2-(4-Chloro-2-methoxyphenyl)-4-methylthiazol-5-yl]acetic acid[1-(4-methoxyphenyl)methylidene]hydrazide]
minimal effective concentration: 1 µM

COc1ccc(CN(C)NC(=O)c2sc(-c3ccc(Cl)cc3OC)nc2C)cc1OC [Example 16-16]
minimal effective concentration: 1 µM

COc1ccc(/C=N/NC(=O)c2sc(-c3ccccc3Cl)nc2C)cc1O [Example 23-2]
minimal effective concentration: 0.1 µM

COc1ccc(CN(C)NC(=O)c2sc(-c3ccc(Cl)cc3Cl)nc2C)cc1 [Example 16-10]
minimal effective concentration: 1 µM

COc1cc(Cl)ccc1-c1nc(C)c(NC(=O)OCc2ccc3c(c2)ncn3C)s1 [Example 9-39]
minimal effective concentration: 0.00625 µM

COc1cc(Cl)ccc1-c1cc(COC(=O)Nc2ccc3c(c2)ncn3C)sn1 [Example 47-4]
minimal effective concentration: 0.00625 µM

CCn1ncc2cc(/C=N/NC(=O)c3cc(-c4ccc(Cl)cc4OC)ns3)ccc21 [Example 49-8]
minimal effective concentration: 1 µM

COc1ccc(COC(=S)Nc2sc(-c3ccc(Cl)cc3OC)nc2C)cc1 [Example 28-1, [2-(4-Chloro-2-methoxyphenyl)-4-methylthiazol-5-yl]thiocarbamic acid O-(4-methoxybenzyl)ester]
minimal effective concentration: 10 µM

O=C(N/N=C/c1ccc(O)cc1Cl)c1cc(-c2ccc(Cl)cc2Cl)n[nH]1 [Example 21-8]
minimal effective concentration: 10 µM

CCn1nc(-c2ccc(C)cc2C)cc1COC(=O)Nc1ccc2c(c1)nc1n2CCC1 [Example 13-111]
minimal effective concentration: 0.00625 µM

CCn1cnc2cc(COC(=O)Nc3cc(-c4ccc(C)cc4C)nn3C)ccc21 [Example 9-235]
minimal effective concentration: 0.00625 µM

CCc1nc2cc(COC(=O)Nc3cc(-c4ccc(Cl)cc4Cl)nn3C)ccc2n1C [Example 9-241]
minimal effective concentration: 10 µM

CCn1nc(-c2ccccc2OC)cc1NC(=O)OCc1ccc2c(c1)nc1n2CCOC1 [Example 9-244]
minimal effective concentration: 1 µM

COc1ccc(/C=N/NC(=O)c2sc(-c3ncccc3C)nc2C)cc1O [Example 23-26]
minimal effective concentration: 1 µM

COc1cc(Cl)ccc1-c1nc(C)c(NC(=O)OCc2ccc3sc(C)nc3c2)s1 [Example 37-1, [2-(4-Chloro-2-methoxyphenyl)-4-methylthiazol-5-yl]carbamic acid 2-methylbenzothiazol-5-ylmethyl ester]
minimal effective concentration: 0.1 µM

COc1ccccc1-c1cc(C(=O)N/N=C/c2ccc3c(c2)ncn3C)sn1 [Example 49-2, 3-(2-Methoxyphenyl)isothiazole-5-carboxylic acid[1-(1-methyl-1H-benzimidazol-5-yl)methylidene]hydrazide]
minimal effective concentration: 0.025 µM

COc1ccc(/C=C/C(=O)Nc2sc(-c3ccc(Cl)cc3OC)nc2C)cc1 [Example 34-1, N-[2-(4-Chloro-2-methoxyphenyl)-4-methylthiazol-5-yl]-3-(4-methoxyphenyl)acrylamide]
minimal effective concentration: 1 µM

CCc1nc(-c2ccccc2OC)sc1NC(=O)OCc1ccc2c(c1)nc1n2CCOC1 [Example 9-168]
minimal effective concentration: 0.1 µM

COc1cc(Cl)ccc1-c1cc(C(=O)N/N=C/c2cc(C)c(O)c(C)c2)n(C)c1 [Example 23-169, 4-(4-Chloro-2-methoxyphenyl)-1-methyl-1H-pyrrole-2-carboxylic acid (4-hydroxy-3,5-dimethylbenzylidene)hydrazide]
minimal effective concentration: 10 µM

COc1ccc(-c2nc(C)c(C(=O)N/N=C/c3ccc(OC)c(O)c3)s2)cc1 [Example 23-103]
minimal effective concentration: 10 µM

COc1cc(Cl)ccc1-c1cc(COC(=O)Nc2ccc3c(c2)nc2n3CCC2)n(C)n1 [Example 13-108]
minimal effective concentration: 0.00625 µM

CCc1nc(-c2ccccc2OC)sc1NC(=O)OCc1ccc2c(c1)ncn2CC [Example 9-162]
minimal effective concentration: 0.1 µM

Cc1nc(-c2ccc(F)cc2Cl)sc1NC(=O)OCc1ccc2nn(C)cc2c1 [Example 9-148]
minimal effective concentration: 1 µM

CCc1nc(-c2ccc(C)cc2OC)sc1NC(=O)OCc1ccc2c(c1)nnn2C [Example 9-372]
minimal effective concentration: 0.00625 µM

Cc1ccc(-c2nc(C)c(NC(=O)OCc3ccc4c(c3)nc3n4CCC3)s2)c(C)c1 [Example 9-108]
minimal effective concentration: 0.025 µM

CCCn1cnc2cc(NC(=O)OCc3sc(-c4ccc(C)cc4C)nc3C)ccc21 [Example 13-19]
minimal effective concentration: 1 µM

COc1cc(Cl)ccc1-c1nc(C)c(NC(=O)OCc2ccc3c(c2)nc2n3CCC(O)C2)s1 (stereo not shown) [Example 9-343]
minimal effective concentration: 0.1 µM

Cc1cc(Cl)ccc1-c1nc(C)c(NC(=O)OCc2ccc3c(c2)nc2n3CCC2)s1 [Example 9-107]
minimal effective concentration: 0.025 µM

CCn1cnc2cc(NC(=O)OCc3cc(-c4ccc(F)cc4OC)nn3C)ccc21 [Example 13-82]
minimal effective concentration: 0.025 µM

CCc1cc(F)ccc1-c1nc(C)c(NC(=O)OCc2ccc3c(c2)nc2n3CCC2)s1 [Example 9-102]
minimal effective concentration: 0.025 µM

COc1cc(Cl)ccc1-c1nc(C)c(C(=O)N/N=C/c2ccc3c(c2)CCO3)s1 [Example 23-83]
minimal effective concentration: 0.1 µM

COc1cc(F)ccc1-c1cc(COC(=O)Nc2ccc3c(c2)nc2n3CCC2)n(C)n1 [Example 13-106]
minimal effective concentration: 0.00625 µM

COc1ccccc1-c1nc(C)c(NC(=O)OCc2ccc3c(c2)nnn3C)s1 [Example 9-13]
minimal effective concentration: 0.025 µM

COc1cc(C)ccc1-c1cc(COC(=O)Nc2ccc3c(c2)nc2n3CCCC2)sn1 [Example 47-6]
minimal effective concentration: 0.025 µM

COc1ccc(CN(C)NC(=O)c2sc(-c3ccc(Cl)cc3OC)nc2C)cc1F [Example 16-20]
minimal effective concentration: 0.1 µM

COc1ccc(/C=N/NC(=O)c2sc(-c3ccc(Cl)cc3OC)nc2C)cc1OC [Example 23-78]
minimal effective concentration: 0.1 µM

COc1ccc(/C=N/NC(=O)c2sc(-c3ccc(Cl)cc3OC)nc2C)cc1C [Example 23-82]
minimal effective concentration: 0.1 µM

Cc1cc(Cl)ccc1-c1nc(C)c(C(=O)NN(C)Cc2ccc3c(ccn3C)c2)s1 [Example 17-2]
minimal effective concentration: 0.025 µM

COc1ccc(/C=N/NC(=O)c2cc(-c3ccccc3OC)ns2)cc1O [Example 27-7]
minimal effective concentration: 0.1 µM

CCn1cc2cc(NC(=O)OCc3sc(-c4ccc(Cl)cc4C)nc3C)ccc2n1 [Example 13-55]
minimal effective concentration: 0.025 µM

Cn1nc(-c2ccc(Cl)cc2Cl)cc1NC(=O)OCc1ccc2c(c1)ncn2C [Example 9-207]
minimal effective concentration: 0.025 µM

CCn1cnc2cc(NC(=O)OCc3sc(-c4ccccc4C)nc3C)ccc21 [Example 13-12]
minimal effective concentration: 0.1 µM

CCc1nc(-c2ccc(C)cc2C)sc1NC(=O)OCc1ccc2nn(C)cc2c1 [Example 9-366]
minimal effective concentration: 0.1 µM

CCn1nc(-c2ccc(Cl)cc2OC)cc1NC(=O)OCc1ccc2c(c1)nc1n2CCCC1 [Example 9-268]
minimal effective concentration: 0.1 µM

CCc1nc(-c2ccccc2OC)sc1NC(=O)OCc1ccc2c(c1)nc1n2CCC1 [Example 9-347]
minimal effective concentration: 1 µM

COc1ccc(CN(C)NC(=O)c2sc(-c3ccc(C)cc3C)nc2C)cc1 [Example 16-11]
minimal effective concentration: 0.1 µM

COc1cc(C)ccc1-c1nc(C)c(NC(=O)OCc2ccc3c(c2)nnn3C)s1 [Example 9-16]
minimal effective concentration: 0.00625 µM

COc1ccc(/C=N/NC(=O)c2cc(-c3ccccc3Cl)n[nH]2)cc1O [Example 22-1, 5-(2-Chlorophenyl)-2H-pyrazole-3-carboxylic acid [1-(3-hydroxy-4-methoxyphenyl)methylidene]hydrazide]
minimal effective concentration: 10 µM

CCn1c(C)nc2cc(COC(=O)Nc3sc(-c4ccc(Cl)cc4OC)nc3C)ccc21 [Example 9-86]
minimal effective concentration: 0.025 µM

COc1cc(Cl)ccc1-c1cc(NC(=O)OCc2ccc3c(c2)ncn3C)nn1C [Example 9-309]
minimal effective concentration: 10 µM

CCn1cc2cc(NC(=O)OCc3sc(-c4ccc(F)cc4Cl)nc3C)ccc2n1 [Example 13-56]
minimal effective concentration: 0.1 µM

COc1ccc(-c2nc(C)c(NC(=O)OCc3ccc4c(c3)ncn4C)s2)c(OC)c1 [Example 9-41]
minimal effective concentration: 0.025 µM

COc1ccc(/C=N/NC(=O)c2sc(-c3ccc(Cl)cc3)nc2C(F)(F)F)cc1O [Example 23-18]
minimal effective concentration: 10 µM
